This passage reports Activity and EC50 results from ChEMBL document CHEMBL1158662, “Cochinolide, a new gamma-alkylidene bicyclic butenolide with antiviral activity, and its beta-glucopyranoside from Homalium cochinchinensis” (J Nat Prod, 1998).

What is called EC50 is the concentration needed to bring the measured effect to its halfway point. Higher therefore signals a need for much substance.

One experiment concerns Human alphaherpesvirus 1. Briefly: Antiviral activity against HSV1. Format: functional, organism-based.
Another experiment deals with Human alphaherpesvirus 2. Briefly: Antiviral activity against HSV2. Format: functional, organism-based.

Converted amounts (≈) assume the structure as drawn. The source made the active and inactive calls. No cut-off for these calls is given here.

For `O=C1OC2=C[C@@H](O[C@@H]3O[C@H](CO)[C@@H](O)[C@H](O)[C@H]3O)CCC2=C1C(O)c1ccccc1` (some centres undefined), the result with Human alphaherpesvirus 1 and with Human alphaherpesvirus 2 was inactive.

Take `Nc1nc2c(ncn2COCCO)c(=O)[nH]1` [ACYCLOVIR]: the EC50 in the experiment on Human alphaherpesvirus 1 amounted to 0.24 µg/mL (≈ 1.07 µM); in the experiment with Human alphaherpesvirus 2, 0.22 µg/mL (≈ 0.977 µM).
